Test results published in patent US5187169A, “Method for treatment of neurodegenerative diseases” (R. J. Reynolds Tobacco Company, priority 1992, dated 1993).

Columns and labels:
[1] = biological target: high affinity nicotinic receptors; experiment: Inhibition of L-[3H]nicotine binding to mouse brain membrane preparations; parameters: species or system Mice (DBA strain); details: mouse brain membranes, 2 hr incubation at 4° C., 10 nM L-[3H]nicotine, Ki calculated from IC50 by the method of Cheng et al.
Method: Mice (DBA strain) were maintained on a 12 hour light/dark cycle and were allowed free access to water and food supplied by Wayne Lab Blox, Madison, Wis. Animals used in the present studies were 60 to 90 days of age and weighed 20 to 25 g. Brain membrane preparations were obtained from pooled brain tissue of both males and females.
Mice were killed by cervical dislocation. Brains were removed and placed on an ice-cold platform. […] Protein was determined by the method of Lowry, et al., J. Biol. Chem., Vol. 193, pp. 265-275 (1951), using bovine serum albumin as the standard.
The binding of L-[^3 H]nicotine was measured using a modification of the method of Romano, et al., Science, Vol. 210, pp. 647-650 (1980) as described previously by Marks, et al., Mol. Pharmacol., Vol. 30, pp. 427-436 (1986). The binding of L-[^3 H]nicotine was measured using a 2 hr. incubation at 4° C. […] Nonspecific binding was determined by inclusion of 10 μM nonradioactive nicotine in the incubations. The inhibition of L-[^3 H]nicotine binding by test compounds was determined by including one of eight different concentrations of the test compound in the incubation. […] Inhibition constants (Ki values) were calculated from the IC50 values using the method of Cheng, et al., Biochem. Pharmacol., Vol. 22, pp. 3099-3108 (1973). […]

[2] = test system: synaptosomes from the striatal area of rat brain; experiment: [3H]-dopamine release from rat striatal synaptosomes; format: cell-based, Sprague-Dawley rats; details: 0.2 ml of a 20 μM solution of ligand, relative to an equal concentration of (S)-(-)-nicotine
Method: Dopamine release was measured by preparing synaptosomes from the striatal area of rat brain obtained from Sprague-Dawley rats generally according to the procedures set forth by Nagy, et al., J. Neurochem., Vol. 43, pp. 1114-1123 (1984). Striata from 4 rats were homogenized in 2 ml of 0.32M sucrose buffered with 5 mM HEPES (pH 7.5), using a glass-teflon tissue grinder. The homogenate was diluted to 5 ml with additional homogenization solution and centrifuged at 1000×g for 10 min. This procedure was repeated on the new pellet and the resulting supernatant was centrifuged at 12,000×g for 20 min. […] Using this method, 30 to 90 percent of the dopamine was taken up into the synaptosomes, as determined by scintillation counting following filtration through glass fiber filters soaked with 0.5 percent polyethyleneimine. […] After the addition of a 0.2 ml of a 20 μM solution of ligand, the perfusate was collected into scintillation vials at 1 min. intervals and the dopamine released was quantified by scintillation counting. Peaks of radioactivity released above background were summed and the average basal release during that time was subtracted from the total. Release was expressed as a percentage of release obtained with an equal concentration of (S)-(-)-nicotine.

For `CN1C(=O)CC[C@H]1c1cccnc1` [cotinine], the Ki [1] was 3.9 µM and the “Dopamine Release” value [2] was 20 Percent release relative to (S.
